Results on 18 compounds are retold here after patent publication US10259810B2, “N-sulfonylated pyrazolo[3,4-b]pyridin-6-carboxamides and method of use” (AbbVie S.à.r.l., priority 2015, dated 2019).

Assay [1] concerns the target T1, ΔF508-CFTR (Homo sapiens, UniProt P13569, DEL508-508).
T1 construct: host or cells: CFBE41o-, doxycycline-inducible
As to the kind of experiment: CFTR cell surface levels using HRP-tagged ΔF508-CFTR expressing CFBE cells, in the presence of a co-corrector. The format is cell-based. Particulars: HRP-tagged ΔF508-CFTR CFBE cells, in the presence of 3 μM co-corrector; for EC50: read-out: EC50. In a few lines:
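Chemiluminescent read-out of surface HRP (15 min, dark) after PBS washes. Activity is normalized as 100×(sample−DMSO)/(3 μM co-corrector alone−DMSO).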

Assay [2] has as its target T1, ΔF508-CFTR. Nature of the assay: CFTR cell surface levels using HRP-tagged ΔF508-CFTR expressing CFBE cells, intrinsic corrector capacity. The format is cell-based. Particulars: HRP-tagged ΔF508-CFTR expressing CFBE41o- cells, compound alone (intrinsic corrector capacity), 20 hours at 33° C.; for EC50: read-out: EC50. The arrangement: % Activation: concentration or dose not given beside the values. The procedure, abridged: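 Surface ΔF508-CFTR was measured as HRP chemiluminescence from an extracellular-loop-4 tag, expressed as percent activity between DMSO and a […] corrector control.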

Each structure is given as a SMILES string.

T1 sequence (P13569 with tags, fused parts or gaps DEL508-508): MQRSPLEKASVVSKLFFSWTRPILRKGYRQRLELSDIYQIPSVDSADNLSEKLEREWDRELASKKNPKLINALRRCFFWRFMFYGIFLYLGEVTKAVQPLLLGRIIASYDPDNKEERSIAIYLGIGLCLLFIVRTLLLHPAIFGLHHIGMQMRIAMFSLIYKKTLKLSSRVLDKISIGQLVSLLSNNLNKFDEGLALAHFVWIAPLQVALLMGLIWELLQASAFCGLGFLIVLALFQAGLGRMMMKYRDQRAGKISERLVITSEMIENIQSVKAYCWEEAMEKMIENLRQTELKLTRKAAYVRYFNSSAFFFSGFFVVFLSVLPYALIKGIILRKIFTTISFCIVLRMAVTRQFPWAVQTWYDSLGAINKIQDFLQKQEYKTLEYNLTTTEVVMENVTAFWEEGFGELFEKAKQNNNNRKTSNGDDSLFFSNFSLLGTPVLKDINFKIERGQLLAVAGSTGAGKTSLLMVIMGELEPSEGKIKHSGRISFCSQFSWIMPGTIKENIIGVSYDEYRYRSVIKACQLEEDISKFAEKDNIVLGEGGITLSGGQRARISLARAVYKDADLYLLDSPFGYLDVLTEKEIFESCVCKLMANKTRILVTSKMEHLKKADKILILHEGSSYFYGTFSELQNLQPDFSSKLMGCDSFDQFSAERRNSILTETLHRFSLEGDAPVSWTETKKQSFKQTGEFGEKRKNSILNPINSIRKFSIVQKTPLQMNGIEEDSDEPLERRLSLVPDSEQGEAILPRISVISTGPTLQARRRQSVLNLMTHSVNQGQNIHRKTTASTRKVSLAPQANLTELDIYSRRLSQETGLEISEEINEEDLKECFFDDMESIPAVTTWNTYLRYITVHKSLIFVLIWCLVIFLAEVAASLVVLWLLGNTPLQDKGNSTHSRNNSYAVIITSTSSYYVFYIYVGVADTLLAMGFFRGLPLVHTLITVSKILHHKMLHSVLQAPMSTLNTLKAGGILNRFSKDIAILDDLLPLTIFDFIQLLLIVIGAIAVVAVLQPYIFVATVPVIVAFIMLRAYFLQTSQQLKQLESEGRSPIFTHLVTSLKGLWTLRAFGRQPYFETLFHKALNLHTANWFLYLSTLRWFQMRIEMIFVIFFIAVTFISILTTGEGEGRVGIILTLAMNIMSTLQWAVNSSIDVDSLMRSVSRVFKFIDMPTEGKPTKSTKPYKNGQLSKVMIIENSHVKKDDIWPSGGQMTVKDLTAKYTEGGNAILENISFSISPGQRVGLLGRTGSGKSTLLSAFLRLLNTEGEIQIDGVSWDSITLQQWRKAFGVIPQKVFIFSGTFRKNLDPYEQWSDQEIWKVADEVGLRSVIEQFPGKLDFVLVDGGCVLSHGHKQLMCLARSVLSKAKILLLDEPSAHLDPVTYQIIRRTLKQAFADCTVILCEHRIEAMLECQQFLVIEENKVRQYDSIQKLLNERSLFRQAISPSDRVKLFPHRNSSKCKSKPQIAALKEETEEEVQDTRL

Regarding `O=C(NS(=O)(=O)N1CCCC1)c1cc(N2CCC(N3CCOCC3)CC2)c2c(C3CCC3)nn(-c3ccc(F)cc3)c2n1` [Compound 485, 3-cyclobutyl-1-(4-fluorophenyl)-4-[4-(morpholin-4-yl)piperidin-1-yl]-N-(pyrrolidine-1-sulfonyl)-1H-pyrazolo[3,4-b]pyridine-6-carboxamide], at ΔF508-CFTR [1], the “% Activation” value amounted to 399.1% and the EC50 turned out to be 90.2 nM. Moreover, on ΔF508-CFTR [2], the “% Activation” value was 218.55% and the EC50 is 155 nM.

For `O=C(NS(=O)(=O)CC(F)(F)F)c1cc(N2CCC(N3CCOCC3)CC2)c2c(C3CCC3)nn(-c3ccc(F)cc3)c2n1` [Compound 486, 3-cyclobutyl-1-(4-fluorophenyl)-4-[4-(morpholin-4-yl)piperidin-1-yl]-N-(2,2,2-trifluoroethanesulfonyl)-1H-pyrazolo[3,4-b]pyridine-6-carboxamide], at ΔF508-CFTR [1], the “% Activation” value amounted to 569% and the EC50 was 181 nM. Besides, at ΔF508-CFTR [2], the “% Activation” value amounted to 332.5% and the EC50 stood at 467 nM.

Regarding `COCCS(=O)(=O)NC(=O)c1cc(N2CCC(N3CCCCC3)CC2)c2c(C3CCC3)nn(-c3ccc(F)cc3)c2n1` [Compound 488, 4-([1,4'-bipiperidin]-1'-yl)-3-cyclobutyl-1-(4-fluorophenyl)-N-(2-methoxyethanesulfonyl)-1H-pyrazolo[3,4-b]pyridine-6-carboxamide], on ΔF508-CFTR [1], the “% Activation” value was 488.15% and the EC50 is 683 nM. Moreover, at ΔF508-CFTR [2], the “% Activation” value worked out at 246.55% and the concentration for a half-maximal effect (EC50) amounted to 655 nM.

With `CC(C)c1nn(-c2ccnc(N3CCOCC3)c2)c2nc(C(=O)NS(=O)(=O)N(C)C)cc(OCC3CCOCC3)c12` [Compound 489, N-(dimethylsulfamoyl)-1-[2-(morpholin-4-yl)pyridin-4-yl]-4-[(oxan-4-yl)methoxy]-3-(propan-2-yl)-1H-pyrazolo[3,4-b]pyridine-6-carboxamide], on ΔF508-CFTR [1], the “% Activation” value is listed as 280% and the EC50 amounted to 241 nM. In addition, at ΔF508-CFTR [2], the “% Activation” value is listed as 99.6% and the EC50 came out at 141 nM.

As for `CS(=O)(=O)NC(=O)c1cc(N2CCC(N3CCOCC3)CC2)c2c(C3CCC3)nn(-c3ccnc(C4CCOCC4)c3)c2n1` [Compound 490, 3-cyclobutyl-N-(methanesulfonyl)-4-[4-(morpholin-4-yl)piperidin-1-yl]-1-[2-(oxan-4-yl)pyridin-4-yl]-1H-pyrazolo[3,4-b]pyridine-6-carboxamide], on ΔF508-CFTR [1], the “% Activation” value is given as 303.9% and the EC50 worked out at 693 nM. Further, on ΔF508-CFTR [2], the “% Activation” value came to 139.7% and the EC50 was 1550 nM.

Take `O=C(NS(=O)(=O)CCO)c1cc(N2CCC(CCN3CCOCC3)CC2)c2c(C3CCC3)nn(-c3ccc(F)cc3)c2n1` [Compound 491, 3-cyclobutyl-1-(4-fluorophenyl)-N-(2-hydroxyethanesulfonyl)-4-{4-[2-(morpholin-4-yl)ethyl]piperidin-1-yl}-1H-pyrazolo[3,4-b]pyridine-6-carboxamide]: on ΔF508-CFTR [1], the “% Activation” value is listed as 490.9% and the EC50 was found to be 488 nM. Moreover, at ΔF508-CFTR [2], the “% Activation” value came to 204.5% and the EC50 amounted to 248 nM.

Regarding `COC(=O)N1CCN(C2CCN(c3cc(C(=O)NS(=O)(=O)N(C)C)nc4c3c(C3CCC3)nn4-c3ccc(F)cc3)CC2)CC1` [Compound 492, methyl 4-(1-{3-cyclobutyl-6-[(dimethylsulfamoyl)carbamoyl]-1-(4-fluorophenyl)-1H-pyrazolo[3,4-b]pyridin-4-yl}piperidin-4-yl)piperazine-1-carboxylate], on ΔF508-CFTR [1], the “% Activation” value is 483.4% and the EC50 stood at 43.9 nM. On ΔF508-CFTR [2], the “% Activation” value was 311% and the EC50 was found to be 79.9 nM.

`CCS(=O)(=O)NC(=O)c1cc(N2CCC(CN3CCOCC3)CC2)c2c(C3CCC3)nn(-c3ccc(F)cc3)c2n1` [Compound 494, 3-cyclobutyl-N-(ethanesulfonyl)-1-(4-fluorophenyl)-4-{4-[(morpholin-4-yl)methyl]piperidin-1-yl}-1H-pyrazolo[3,4-b]pyridine-6-carboxamide]: on ΔF508-CFTR [1], the “% Activation” value came to 551.8% and the EC50 was 37.1 nM. Moreover, at ΔF508-CFTR [2], the “% Activation” value was determined as 315.4% and the EC50 amounted to 110 nM.

Consider `CCOC(=O)N1CCC(c2cc(C(=O)NS(C)(=O)=O)nc3c2c(C(C)C)nn3-c2ccc(F)cc2)CC1` [Compound 496, ethyl 4-[1-(4-fluorophenyl)-6-[(methanesulfonyl)carbamoyl]-3-(propan-2-yl)-1H-pyrazolo[3,4-b]pyridin-4-yl]piperidine-1-carboxylate], for which the “% Activation” value at ΔF508-CFTR [1] was 374.65%; at ΔF508-CFTR [2], 199.9%. For the same compound, the EC50 is 243 nM on ΔF508-CFTR [1] and 282 nM on ΔF508-CFTR [2].

With `CCOC(=O)N1CCC(c2cc(C(=O)NS(=O)(=O)N(C)C)nc3c2c(C(C)C)nn3-c2ccc(F)cc2)CC1` [Compound 497, ethyl 4-{6-[(dimethylsulfamoyl)carbamoyl]-1-(4-fluorophenyl)-3-(propan-2-yl)-1H-pyrazolo[3,4-b]pyridin-4-yl}piperidine-1-carboxylate], on ΔF508-CFTR [1], the “% Activation” value worked out at 378.25% and the EC50 was 288 nM. For the same compound, on ΔF508-CFTR [2], the “% Activation” value is recorded as 195.7% and the EC50 was 410 nM.

On to `Cc1cccc(-n2nc(C3CCC3)c3c(N4CCC(N5CCOCC5)CC4)cc(C(=O)NS(=O)(=O)N(C)C)nc32)c1` [Compound 498, 3-cyclobutyl-N-(dimethylsulfamoyl)-1-(3-methylphenyl)-4-[4-(morpholin-4-yl)piperidin-1-yl]-1H-pyrazolo[3,4-b]pyridine-6-carboxamide], for which, at ΔF508-CFTR [1], the “% Activation” value was 456.3% and the EC50 is 95.1 nM. Also, on ΔF508-CFTR [2], the “% Activation” value is given as 288.1% and the EC50 is 144 nM.

Take `COc1cccc(-n2nc(C3CCC3)c3c(N4CCC(N5CCOCC5)CC4)cc(C(=O)NS(=O)(=O)N(C)C)nc32)c1` [Compound 499, 3-cyclobutyl-N-(dimethylsulfamoyl)-1-(3-methoxyphenyl)-4-[4-(morpholin-4-yl)piperidin-1-yl]-1H-pyrazolo[3,4-b]pyridine-6-carboxamide]: the figures for the “% Activation” value on ΔF508-CFTR [1] and on ΔF508-CFTR [2] were 439.6% and 287.5%, respectively. Besides, the EC50 was 71.2 nM at ΔF508-CFTR [1] and 186 nM on ΔF508-CFTR [2].

Take `CN(C)S(=O)(=O)NC(=O)c1cc(N2CCC(N3CCOCC3)CC2)c2c(C3CCC3)nn(-c3ccc(C(F)(F)F)cc3)c2n1` [Compound 500, 3-cyclobutyl-N-(dimethylsulfamoyl)-4-[4-(morpholin-4-yl)piperidin-1-yl]-1-[4-(trifluoromethyl)phenyl]-1H-pyrazolo[3,4-b]pyridine-6-carboxamide]: at ΔF508-CFTR [1], the “% Activation” value is 330.05% and the EC50 was determined as 84.2 nM. At ΔF508-CFTR [2], the “% Activation” value amounted to 137.5% and the EC50 turned out to be 173 nM.

On to `CCOCC1(F)CCN(c2cc(C(=O)NS(C)(=O)=O)nc3c2c(C2CCC2)nn3-c2ccccc2)CC1` [Compound 501, 3-cyclobutyl-4-[4-(ethoxymethyl)-4-fluoropiperidin-1-yl]-N-(methanesulfonyl)-1-phenyl-1H-pyrazolo[3,4-b]pyridine-6-carboxamide], for which, on ΔF508-CFTR [1], the “% Activation” value was 403.55% and the EC50 is 124 nM. On ΔF508-CFTR [2], the “% Activation” value is on record as 188.7% and the EC50 was 211 nM.

On to `COCCOCC1(F)CCN(c2cc(C(=O)NS(C)(=O)=O)nc3c2c(C2CCC2)nn3-c2ccccc2)CC1` [Compound 502, 3-cyclobutyl-4-{4-fluoro-4-[(2-methoxyethoxy)methyl]piperidin-1-yl}-N-(methanesulfonyl)-1-phenyl-1H-pyrazolo[3,4-b]pyridine-6-carboxamide], for which, at ΔF508-CFTR [1], the “% Activation” value was found to be 383.8% and the EC50 stood at 177 nM. On ΔF508-CFTR [2], the “% Activation” value is 214.2% and the EC50 was 345 nM.

Turning to `COCCOCC1(F)CCCN(c2cc(C(=O)NS(C)(=O)=O)nc3c2c(C2CCC2)nn3-c2ccccc2)C1` (stereo not drawn) [Compound 503, 3-cyclobutyl-4-{3-fluoro-3-[(2-methoxyethoxy)methyl]piperidin-1-yl}-N-(methanesulfonyl)-1-phenyl-1H-pyrazolo[3,4-b]pyridine-6-carboxamide], the “% Activation” value on ΔF508-CFTR [1] was found to be 433.2%; on ΔF508-CFTR [2], 203.4%. In addition, the EC50 at ΔF508-CFTR [1] was 405 nM; on ΔF508-CFTR [2], 419 nM.

For the compound `COCC1(F)CCN(c2cc(C(=O)NS(C)(=O)=O)nc3c2c(C2CCC2)nn3-c2ccccc2)CC1` [Compound 504, 3-cyclobutyl-4-[4-fluoro-4-(methoxymethyl)piperidin-1-yl]-N-(methanesulfonyl)-1-phenyl-1H-pyrazolo[3,4-b]pyridine-6-carboxamide], at ΔF508-CFTR [1], the “% Activation” value stood at 404.8% and the EC50 was 210 nM. On ΔF508-CFTR [2], the “% Activation” value was 206.4% and the EC50 stood at 301 nM.

As to `N#CC1CCN(S(=O)(=O)NC(=O)c2cc(N3CCC(N4CCOCC4)CC3)c3c(C4CCC4)nn(-c4ccc(F)cc4)c3n2)CC1` [Compound 505, N-(4-cyanopiperidine-1-sulfonyl)-3-cyclobutyl-1-(4-fluorophenyl)-4-[4-(morpholin-4-yl)piperidin-1-yl]-1H-pyrazolo[3,4-b]pyridine-6-carboxamide], on ΔF508-CFTR [1], the “% Activation” value was 389% and the EC50 worked out at 54.1 nM. At ΔF508-CFTR [2], the “% Activation” value is listed as 187.5% and the EC50 was determined as 92.6 nM.

In general, EC50 refers to the concentration needed to bring the measured effect to its halfway point.
